From the METLIN SMRT retention time set (Domingo-Almenara et al. 2019)

Assay: gradient 5% acetonitrile 3 min, to 50% in 2 min, to 85% in 15 min, held 3 min, 100 µL/min
Details: column: Zorbax Extend-C18 2.1 x 50 mm; eluents: water / acetonitrile, 0.1% formic acid
Method in brief: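 Retention times come from adduct peaks that were picked computationally and then checked by hand. The standards, pure and pooled in mixtures of ~100 molecules, were run on a Zorbax Extend-C18 column (2.1 × 50 mm, 1.8 μm) at 100 μL/min with water and acetonitrile, each with 0.1% formic acid. Detection was by quadrupole time-of-flight mass spectrometry in positive and negative ionization mode, with a dead volume of 40 μL and a dwell volume of 900 μL.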

RP-LC retention time [s]	Structure (SMILES)
1130	Cc1cccc(Nc2nc(-c3ccc(C(C)C)cc3)cs2)n1
1120	COc1ccc(-c2cc(C(=O)N3CCC(Cc4ccccc4)CC3)no2)cc1
949	C[C@H](NC(=O)Cc1cc(F)cc(F)c1)C(=O)N[C@@H]1C(=O)N(C)c2ccccc2-c2ccccc21
825	CC1=NS(=O)(=O)c2cccnc2N1c1cccc(Br)c1
940	Cn1c(=O)c2cc(C(=O)NCc3ccccc3C(F)(F)F)nn2c2ccccc21
858	O=C(NCc1cccs1)c1cccc2c1CCN2C(=O)c1ccc(F)cc1
783	O=C(CN1CCN(Cc2ccccc2F)C1=O)NCc1ccc(N2CCCC2)cc1
1170	CCc1nc(-n2cccc2)sc1C(=O)Nc1cccc(F)c1
713	COc1cc(-c2ccc(C)cc2)nc2ccc(NC(=O)c3ccco3)cc12
1090	Cc1ccc(Oc2nccnc2SCC(=O)NCCC2=CCCCC2)cc1
794	O=c1n(CCOc2ccccc2)nc2c(S(=O)(=O)N3CCCC3)cccn12
1030	CCN1C(=O)c2cc(S(=O)(=O)Nc3cccc(C)c3C)ccc2Oc2cccnc21
650	CCC(C)NC(=O)NCCn1c(-c2ccc(C)cc2)nc2cccnc21 (stereo not given)
968	CCOC(=O)c1sc2ccccc2c1S(=O)(=O)Nc1ccc2c(c1)OCO2
1140	COc1c(C(=O)NC(C)c2ccccc2)sc2cccc(F)c12 (stereo not given)
864	COCCCn1cc(C(=O)Nc2cccc(C)n2)c2nn(-c3ccccc3)c(=O)c-2c1
716	O=C(Cc1ccccc1Cl)N1CCCN(c2nc3cccnc3o2)CC1
637	Cc1cccn2cc(-c3cccc(S(=O)(=O)N4CCCC4)c3)nc12
741	CCOc1ccc(C(=O)NC2CCN(c3cc(-c4ccccc4)[nH]n3)C2)cc1 (stereo not given)
1120	COc1cc(NS(=O)(=O)c2c(C)nn(-c3ccc(-c4ccc(C)cc4)nn3)c2C)cc(OC)c1
697	COc1ccc(C(=O)Nc2c(-c3ccc(F)cc3)nc3cc(C)ccn23)c(OC)c1
777	Cc1c(C(=O)C(=O)NCC2COc3ccccc3O2)c2ccccc2n1C (stereo not given)

RP-LC retention time [s]	Structure (SMILES)
594	Cc1ccc(CN2CCC(CNC(=O)C3CCCN(c4nccc(C)n4)C3)CC2)cc1 (stereo not given)
808	O=C(Nc1ccccn1)c1csc2nc(-c3ccc(F)cc3)cn12
866	COc1ccc(-c2nsc(C(=O)NCc3cccs3)c2N)cc1
597	O=C(Nc1cccc(Cl)c1)N1CCc2nc[nH]c2C1
786	CC(C)(C)CC(=O)NCCn1c(=O)n(Cc2ccccc2)c2cccnc21
773	COc1ccc(NC(=O)N2CCC3(CC2)N=C(c2ccc(F)cc2)C(=O)N3)c(OC)c1
745	CC(C)CNC(=O)C1CCN(c2cnn(Cc3ccccc3)c(=O)c2)CC1
741	Cc1ccc(-c2ncccc2CNS(=O)(=O)Cc2cccc(Cl)c2)cc1
581	Cc1cc(N2CCN(C)CC2)nc2ccc(NC(=O)CCC(=O)NCCc3ccc(Cl)cc3)cc12
833	Cc1ccc(-c2nc(N3CCCCCC3)c3ccccc3n2)cc1
611	CCOc1cc2c(cc1OCC)C1C(C(=O)Nc3cccnc3)c3ccccc3C(=O)N1CC2 (stereo not given)
604	Cc1nccn1C1CN(S(=O)(=O)c2cccc(F)c2)C1
709	CC(=O)Nc1c(C)nn(-c2ccccc2)c1N1CCC(C(=O)Nc2cccc(C(C)=O)c2)CC1
1060	CC(C)CCSc1nnc2c(S(=O)(=O)N3CCN(c4ccc(F)cc4)CC3)cccn12
980	COc1ccc(Cl)cc1NC(=O)NCCc1cn(CC(C)C)c2ncccc12
951	CCOc1ccc(/C=C/c2nn3c(-c4cccnc4)nnc3s2)cc1
672	CCn1c(=O)c(NCc2ccc(C)c(C)c2)nc2ccncc21
859	Cn1c(=O)n(CC(=O)N2CCOCC2)c(=O)c2cnc(-c3ccc(Cl)cc3)nc21
772	CC1=C(c2ccc(C)cc2)S(=O)(=O)N=C1N1CCCN(C(=O)NC(C)C)CC1
1260	CCN(C(=O)Cc1ccc(OC)cc1)c1nc(-c2ccccc2)cs1
760	COCCn1cc(CCNC(=O)Nc2ccc(Cl)cc2)c2cccnc21

Further lines, the compound ahead of its results:

Structure (SMILES)	RP-LC retention time [s]
CCn1ccc(C(=O)N2CCC(c3noc(-c4cnccn4)n3)C2)n1 (stereo not given)	634
O=C(Cc1c[nH]c2ccccc12)N1CC(n2cc(COCC3CC3)nn2)C1	704
CCOc1ccccc1NC(=O)C1CCN(C(=O)C2Sc3ccccc3NC2=O)CC1 (stereo not given)	814
Cc1ccc(S(=O)(=O)NC2CCN(C(=O)C3CCC3)CC2)cc1	761
Cc1ccc(CNC(=O)C2CCN(c3cncnc3N3CCOCC3)CC2)cc1C	649
Cc1cc2c(cc1S(=O)(=O)NC1CC1)N(C(=O)C1CCC1)CC2	844
COc1ccc(C(=O)N2C[C@H](c3nc(-c4ccccc4)no3)[C@@H](C)C2)cc1F	991
CCCCNC(=O)c1ccc2c(c1)NC(=O)C(C(C)C)N2 (stereo not given)	684
CCn1cc(C(=O)NCc2ccccc2C(F)(F)F)c2cccnc21	863
Cc1cc2nc(C(F)(F)F)c(=O)n(C(C)C(=O)NCCN(C)C)c2cc1C (stereo not given)	695
CCN(CC)C(=O)C1CCCN(S(=O)(=O)c2ccc(OC)c(C)c2)C1 (stereo not given)	881
O=C(c1ccccc1Br)N1CCN(Cc2noc3ccccc23)CC1	760
COCCN1CCC(CNS(=O)(=O)c2ccc(OCC(C)C)cc2)CC1	587
Cc1ccc(C)c(-c2nnc(NC(=O)c3ccc4c(c3)OCCO4)o2)c1	921
Cc1nnc(-c2nnc(NC(C)C)c3ccccc23)o1	602
CON=C(C(=O)NC1C(=O)N2C(C(=O)O)=C(CSc3nc(C)c(CC(=O)O)s3)CSC12)c1csc(N)n1 (stereo not given)	629
CC(C)CCNC(=O)c1ccc(Oc2nccnc2N2CCC(C)CC2)cc1	1170
CCOC(=O)C1=C(CN2CCN(c3ccccc3F)CC2)NC(=O)NC1c1cccc(OC)c1OC (stereo not given)	730
CC(C)OCCCNC(=O)c1cc2n(n1)CCCN(Cc1ccc(F)cc1)C2=O	795
CN(C)c1ccc(/C=C2\CCc3ccccc3C2=O)cc1Br	1260
CCc1noc2nc(CCC(=O)NCCN3CCN(CC)CC3)nc(N3CCCCC3)c12	599
O=C(NC1CC1)C1CCN(c2cncnc2N2CCCCC2)CC1	607
O=C(NCCCN1CCCC1=O)c1csc(N2CCN(c3ccccc3)CC2)n1	781
Cc1ccc2[nH]cc(CCNC(=O)C3CCCN(C(=O)c4[nH]c(C)cc4C)C3)c2c1 (stereo not given)	832

Structure (SMILES)	RP-LC retention time [s]
CCc1ccc(C2=C(C)C(N3CCC(NC(=O)NC(C)(C)C)CC3)=NS2(=O)=O)cc1	928
CC(C)CCNC(=O)C1CCN(c2cncnc2N2CCCCC2)CC1	674
O=C(NCc1cc(F)ccc1F)c1ccc2c(c1)nc1n2CCN(C2CCCCC2)C1=O	830
COc1ccc(OC)c(S(=O)(=O)N2CCC(n3cnnc3C)CC2)c1	652
COc1ccc(/C=C/c2nc3sc4c(c3c(=O)o2)CCCC4)cc1OC	1250
COc1cc(NC(=O)Cn2cccc2-c2nnc(C3CCC3)o2)cc(OC)c1	876
O=C(c1nc(C2CC2)nc2c1OCCO2)N1CCCC1c1cccnc1 (stereo not given)	642
Cc1cc(OC(C)C(=O)N[C@@H](C)C(=O)O)c2c3c(c(=O)oc2c1)CCCC3 (stereo not given in full)	767
COc1cccc(N2CCN(Cc3nc4nc(C)cc(N5CCCC5)n4n3)CC2)c1	619
CN(CC1(C)CCOCC1)C(=O)NC1CCCCC1	749
Cc1ccc(NC(=O)C2CCN(S(=O)(=O)c3ccc4c(c3)CCCC(=O)N4)CC2)cc1N(C)C	698
Cn1c(=O)c(N2CCN(S(=O)(=O)c3ccc4c(c3)CCCC4)CC2)nc2ccncc21	765
COC1CCOC2(CCN(C(=O)c3ccco3)CC2)C1 (stereo not given)	645
Cc1cc(C)c(NC(=O)Cn2c(=O)n(-c3ccc(F)cc3)c(=O)c3c2cc(C)n3C)c(C)c1	921
CCN1C(=O)COc2ccc(-c3nc(NC(=O)C4CCCCC4)sc3C)cc21	652
Cc1cc(C)n(Cc2ccc(C(=O)N3CCCN(c4cc(=O)n(C(C)C)c(=O)n4C(C)C)CC3)o2)n1	768
Cc1nn(C(C)C(=O)NCCN2CCCCC2C)c(=O)c2c1sc1ccccc12 (stereo not given)	680
Cc1sc2nc(SCC(=O)Nc3ccc(S(N)(=O)=O)cc3)nc(N)c2c1C	682
Cc1cc(N2CCC(C)CC2)n2ncnc2n1	790
CC1CCNC2C1NC(=O)C1CCCNC1N2C1CC1 (stereo not given)	679
C=CCn1c(C)c(CC(=O)NC(C)CC)c(=O)n2nc(-c3ccccc3)nc12 (stereo not given)	818
O=C(c1ccc(F)cc1)N1CCN(c2cnn3c(C4CC4)nnc3c2)CC1	636
CCc1cc(=O)n(CC(=O)NCCOC)c(N2CCOCC2)n1	577
